Data set [1] has as its target T1, Steryl-sulfatase (Homo sapiens, UniProt P08842).
T1 sequence (P08842 whole entry): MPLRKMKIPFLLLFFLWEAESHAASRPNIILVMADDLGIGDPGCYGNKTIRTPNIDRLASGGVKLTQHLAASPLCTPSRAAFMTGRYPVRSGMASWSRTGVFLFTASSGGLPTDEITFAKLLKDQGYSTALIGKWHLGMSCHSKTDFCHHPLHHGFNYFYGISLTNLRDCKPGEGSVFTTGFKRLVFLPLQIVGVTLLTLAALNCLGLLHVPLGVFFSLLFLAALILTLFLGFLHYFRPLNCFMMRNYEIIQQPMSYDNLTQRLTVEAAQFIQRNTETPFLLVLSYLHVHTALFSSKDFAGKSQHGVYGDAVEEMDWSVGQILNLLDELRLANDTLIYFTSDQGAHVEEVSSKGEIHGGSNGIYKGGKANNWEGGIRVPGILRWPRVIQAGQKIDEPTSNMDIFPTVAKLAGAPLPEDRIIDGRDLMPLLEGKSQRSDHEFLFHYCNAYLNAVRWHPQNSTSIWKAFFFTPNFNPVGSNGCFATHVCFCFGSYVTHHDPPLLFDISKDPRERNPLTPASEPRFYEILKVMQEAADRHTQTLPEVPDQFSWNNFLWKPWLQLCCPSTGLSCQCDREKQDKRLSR
Description: Inhibition of STS in human JEG-3 cell lysates assessed as inhibition of estrone E1 formation using [3H]estrone sulfate as substrate incubated for 1 hr in presence of E1S by scintillation spectrometry. The data set is classed as subcellular.

The target of data set [2] is T1, Steryl-sulfatase. Description: Inhibition of STS in human JEG-3 cells assessed as inhibition of estrone E1 formation using [3H]estrone sulfate as substrate incubated for 20 hrs in presence of E1S by scintillation spectrometry. The data set is classed as cell-based.
In data set [3] the test system is T47D. Description: Antiproliferative activity against human T47D cells assessed as inhibition of cell growth at 10 uM incubated for 5 days by crystal violet staining based analysis. The data set is classed as functional. The settings on record: 120 h, time 5 day.
The test system of data set [4] is T47D. The data set is described as follows: Antiproliferative activity against human T47D cells assessed as inhibition of cell growth incubated for 5 days by crystal violet staining based analysis. The settings on record: 120 h, time 5 day. The data set is classed as functional.
The target in data set [5] is T2, Estrogen receptor (Homo sapiens) (UniProt P03372).
T2 sequence (whole entry): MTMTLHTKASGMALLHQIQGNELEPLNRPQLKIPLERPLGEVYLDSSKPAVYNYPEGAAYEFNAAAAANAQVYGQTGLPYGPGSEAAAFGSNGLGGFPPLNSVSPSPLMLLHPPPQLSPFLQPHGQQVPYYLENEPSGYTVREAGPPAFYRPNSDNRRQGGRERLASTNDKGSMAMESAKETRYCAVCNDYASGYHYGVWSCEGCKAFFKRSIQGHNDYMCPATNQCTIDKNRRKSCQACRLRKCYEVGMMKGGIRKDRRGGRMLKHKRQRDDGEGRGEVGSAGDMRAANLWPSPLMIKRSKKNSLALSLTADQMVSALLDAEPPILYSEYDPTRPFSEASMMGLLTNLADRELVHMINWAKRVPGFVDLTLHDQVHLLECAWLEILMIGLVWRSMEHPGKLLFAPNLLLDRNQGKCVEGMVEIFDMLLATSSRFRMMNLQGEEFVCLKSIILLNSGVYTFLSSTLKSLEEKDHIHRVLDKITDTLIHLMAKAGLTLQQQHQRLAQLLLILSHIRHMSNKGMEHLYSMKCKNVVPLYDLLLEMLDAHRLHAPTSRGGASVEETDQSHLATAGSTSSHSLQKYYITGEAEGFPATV
The data set is described as follows: Antagonist activity at ER-alpha (unknown origin) at 10 microM by ER-alpha coactivator assay.

The nature of data set [6]: Stability of the compound in wet DMSO-d6 assessed as parent compound remaining at 8 umol measured at room temperature after 45 days by 1HNMR spectroscopy. The data set is classed as physicochemical. The conditions noted are these: at 8 µmol, time 45 day, read-out: Stability.
Data set [7] is described as follows: Stability of the compound in wet DMSO-d6 assessed as parent compound remaining at 6.2 umol measured at room temperature after 6 days by 1HNMR spectroscopy. It counts as physicochemical. The conditions noted are these: at 6.2 µmol, time 6 day, read-out: Stability.
The nature of data set [8]: Stability of the compound in wet DMSO-d6 assessed as parent compound remaining at 6.2 umol measured at room temperature after 45 days by 1HNMR spectroscopy. It counts as physicochemical. The settings on record: at 6.2 µmol, time 45 day, read-out: Stability.
Another data set concerns CCRF-CEM. The data set is described as follows: Antiproliferative activity against human CCRF-CEM cells assessed as inhibition of cell growth measured after 72 hrs by CellTiter-Glo assay. The data set is classed as functional. A general note: ATP-based viability assays read luminescence as a measure of living cells.
For another data set, the system named is HOP-62. The data set is described as follows: Antiproliferative activity against human HOP-62 cells assessed as inhibition of cell growth measured after 72 hrs by CellTiter-Glo assay. The data set is classed as functional.
Another data set deals with HCT-116. Description: Antiproliferative activity against human HCT-116 cells assessed as inhibition of cell growth measured after 72 hrs by CellTiter-Glo assay. The data set is classed as functional.
Another data set relates to SF-539. The data set is described as follows: Antiproliferative activity against human SF-539 cells assessed as inhibition of cell growth measured after 72 hrs by CellTiter-Glo assay. It counts as functional.
Another data set relates to UACC-62. Description: Antiproliferative activity against human UACC-62 cells assessed as inhibition of cell growth measured after 72 hrs by CellTiter-Glo assay. The data set is classed as functional.
The next data set concerns OVCAR-4. The data set is described as follows: Antiproliferative activity against human OVCAR-4 cells assessed as inhibition of cell growth measured after 72 hrs by CellTiter-Glo assay. It counts as functional.
A further data set deals with SN12C. Description: Antiproliferative activity against human SN12C cells assessed as inhibition of cell growth measured after 72 hrs by CellTiter-Glo assay. It counts as functional.
The next data set relates to DU-145. The data set is described as follows: Antiproliferative activity against human DU-145 cells assessed as inhibition of cell growth measured after 72 hrs by CellTiter-Glo assay. It counts as functional.
The next data set has as its system MDA-MB-231. The data set is described as follows: Antiproliferative activity against human MDA-MB-231 cells assessed as inhibition of cell growth measured after 72 hrs by CellTiter-Glo assay. The data set is classed as functional.
A short description of data set [9]: Stability of the compound in wet DMSO-d6 assessed as parent compound remaining at 7.9 umol measured at room temperature after 6 days by 1HNMR spectroscopy. The settings on record: at 7.9 µmol, time 6 day, read-out: Stability. It counts as physicochemical.
The nature of data set [10]: Stability of the compound in wet DMSO-d6 assessed as parent compound remaining at 7.9 umol measured at room temperature after 30 days by 1HNMR spectroscopy. It counts as physicochemical. The conditions noted are these: at 7.9 µmol, time 30 day, read-out: Stability.

One may read the IC50 as the concentration at which inhibition is half-maximal. As a reminder, the inhibition is how much of the control response was suppressed. One may read the GI50 as the concentration giving 50% growth inhibition.

As to `O=C(c1ccc(OCCN2CCCCC2)cc1)c1c(-c2ccc(O)cc2)sc2cc(O)ccc12` [RALOXIFENE], the IC50 entry at Steryl-sulfatase [1] (jeg-3) and at Steryl-sulfatase [2] (jeg-3) was “Not Active” throughout. Besides, in the data set on T47D [3], the inhibition at 10 µM came to 78%. Moreover, in the data set with T47D [4], the GI50 turned out to be 6.89 µM.
`NS(=O)(=O)Oc1ccc(-c2sc3cc(O)ccc3c2C(=O)c2ccc(OCCN3CCCCC3)cc2)cc1`: the concentration for half-maximal inhibition (IC50) at Steryl-sulfatase [1] (read-out: IC50) stood at 3.4 µM; on Steryl-sulfatase [2] (read-out: IC50), 0.607 µM. The inhibition in data set [5] is 27%. The inhibition at 10 µM in the data set on T47D [3] is 12%. Also, the remaining at 1080 h, 8 umol in data set [6] is 12%.
As to `NS(=O)(=O)Oc1ccc2c(C(=O)c3ccc(OCCN4CCCCC4)cc3)c(-c3ccc(O)cc3)sc2c1`, the IC50 was determined as 2.08 µM at Steryl-sulfatase [1] (read-out: IC50) and 0.332 µM on Steryl-sulfatase [2] (read-out: IC50). In data set [7], the remaining at 144 h, 6.2 umol was determined as 70%. In addition, the remaining at 1080 h, 6.2 umol in data set [8] is 18%.
Turning to `NS(=O)(=O)Oc1ccc(-c2sc3cc(OS(N)(=O)=O)ccc3c2C(=O)c2ccc(OCCN3CCCCC3)cc2)cc1`, the IC50 on Steryl-sulfatase [1] (read-out: IC50) stood at 0.0966 µM; on Steryl-sulfatase [2] (read-out: IC50), 0.0122 µM. In addition, the GI50 in the data set on T47D [4] is 7.12 µM; in the data set on CCRF-CEM, 9.02 µM; with HOP-62, 14.8 µM; in the data set with HCT-116, 14.6 µM; with SF-539 it was 13.1 µM; in the data set on UACC-62 it was 1.47 µM. Besides, the 50% growth inhibitory concentration (GI50) came to 10.6 µM with OVCAR-4, 1.61 µM in the data set with SN12C, 16 µM with DU-145 and 1.34 µM in the data set on MDA-MB-231. Also, the remaining at 144 h, 7.9 umol in data set [9] amounted to 27%. Also, the remaining at 720 h, 7.9 umol in data set [10] was 0%.
Take `Cl.O=C(c1ccc(OCCN2CCCCC2)cc1)c1c(-c2ccc(O)cc2)sc2cc(O)ccc12` [RALOXIFENE HYDROCHLORIDE]: the IC50 entry at Steryl-sulfatase [1] (jeg-3) was “Not Active”.

The values above are taken from ChEMBL document CHEMBL5335823, “Synthesis, biological evaluation, and stability studies of raloxifene mono- and bis-sulfamates as dual-targeting agents” (Bioorg Med Chem, 2024).
